Blank lines part the entries; values can stand above or below the molecule they belong to.
Legend:
A549 [1] = assay: Cytotoxicity against human A549 cells assessed as cell growth inhibition incubated for 72 hrs by MTT assay; type: functional, cell-based; conditions: A549, 72 h
K562 = assay: Cytotoxicity against human K562 cells assessed as cell growth inhibition incubated for 72 hrs by MTT assay; type: functional, cell-based; conditions: K562, 72 h
Plasmodium falciparum [2] = assay: Antimalarial activity against chloroquine sensitive Plasmodium falciparum NF54 assessed as inhibition of parasite growth incubated for 72 hrs by [3H]-hypoxanthine incorporation assay based liquid scintillation counter; type: functional, organism-based
HL-60 [3] = assay: Cytotoxicity against human HL-60 cells assessed as cell growth inhibition incubated for 48 hrs by WST-1 assay; type: functional, cell-based; conditions: HL-60, 48 h
Jurkat [4] = assay: Cytotoxicity against human Jurkat cells assessed as cell growth inhibition incubated for 48 hrs by WST-1 assay; type: functional, cell-based
A549 [5] = assay: Cytotoxicity against human A549 cells assessed as cell growth inhibition incubated for 48 hrs by WST-1 assay; type: functional, cell-based; conditions: A549, 48 h
COLO 201 = assay: Cytotoxicity against human COLO201 cells assessed as cell growth inhibition incubated for 48 hrs by WST-1 assay; type: functional, cell-based; conditions: COLO 201, 48 h
HT-29 = assay: Cytotoxicity against human HT-29 cells assessed as cell growth inhibition incubated for 48 hrs by WST-1 assay; type: functional, cell-based; conditions: HT-29, 48 h
AGS = assay: Cytotoxicity against human AGS cells assessed as cell growth inhibition incubated for 48 hrs by WST-1 assay; type: functional, cell-based
A2780 = assay: Cytotoxicity against human A2780 cells assessed as cell growth inhibition incubated for 48 hrs by WST-1 assay; type: functional, cell-based; conditions: A2780, 48 h
BT-549 = assay: Cytotoxicity against human BT-549 cells assessed as cell growth inhibition incubated for 48 hrs by WST-1 assay; type: functional, cell-based; conditions: BT-549, 48 h
MCF7 = assay: Cytotoxicity against human MCF7 cells assessed as cell growth inhibition incubated for 48 hrs by WST-1 assay; type: functional, cell-based; conditions: MCF7, 48 h
Plasmodium falciparum [6] = assay: Antimalarial activity against chloroquine resistant Plasmodium falciparum K1 assessed as inhibition of parasite growth incubated for 72 hrs by [3H]-hypoxanthine incorporation assay based liquid scintillation counter; type: functional, organism-based
Caco-2 = assay: Antiproliferative activity against human Caco-2 cells incubated for 96 hrs by MTT assay; type: functional, cell-based; conditions: Caco-2, 96 h
HL-60 [7] = assay: Antiproliferative activity against human HL-60 cells incubated for 96 hrs by MTT assay; type: functional, cell-based; conditions: HL-60, 96 h
Jurkat [8] = assay: Cytotoxicity against human Jurkat cells assessed as cell growth inhibition incubated for 48 hrs by XTT assay; type: functional, cell-based
MOLT-4 = assay: Cytotoxicity against human MOLT-4 cells assessed as cell growth inhibition incubated for 48 hrs by XTT assay; type: functional, cell-based; conditions: MOLT-4, 48 h
HL-60 [9] = assay: Cytotoxicity against human HL-60 cells assessed as cell growth inhibition incubated for 48 hrs by XTT assay; type: functional, cell-based; conditions: HL-60, 48 h
[10] = Oral bioavailability in Wistar rat at 100 mg/kg by UPLC-MS/MS analysis; type: ADME, organism-based; conditions: in vivo
HaCaT [11] = assay: Cytotoxicity against human HaCaT cells assessed as decrease in cell viability at 50 uM incubated for 1 hr in presence of UV radiation by CellTiter-96 assay; type: toxicity, cell-based
HaCaT [12] = assay: Induction of DNA damage in human HaCaT cells assessed as fold change at 50 uM in presence of UV radiation by comet assay; type: toxicity, cell-based
[13] = Toxicity in Sprague-Dawley rat assessed as NOAEL by po administrated gestational day upto 20 days; type: organism-based; conditions: in vivo, time < 20 day
[14] = Toxicity in Sprague-Dawley rat assessed as LOAEL by po administrated gestational day upto 20 days; type: organism-based; conditions: in vivo, 480 h, time < 20 day

SMILES: O[C@H]1/C=C\[C@H]2C[C@]34CN5CCCC/C=C\CC[C@](O)(C=C(c6nccc7c6[nH]c6ccccc67)[C@@H]3CC5)[C@@H]4N2CCC1
IC50 (A549 [1]): 5800 nM | IC50 (K562): 5200 nM

SMILES: O[C@]12C=C(c3nccc4c3[nH]c3ccccc34)[C@@H]3CCN(CCCC/C=C\CC1)C[C@@]31C[C@@H]3C=C[C@H]4CCC[N@+]43[C@H]12
IC50 (A549 [1]): 5800 nM | IC50 (K562): 5200 nM

SMILES: COc1cc(O)c(-c2cc(-c3cc(-c4c(O)cc5c(c4OC)[C@H](C)N[C@H](C)C5)c4cc(C)cc(OC)c4c3O)c(O)c3c(OC)cc(C)cc23)c2c1[C@H](C)N[C@H](C)C2
IC50 (Plasmodium falciparum [2]): 34 nM

SMILES: CO[C@@H]1C=C[C@@]23c4cc5c(cc4[C@H](O)N(C[C@@H]2O)[C@H]3C1)OCO5
IC50 (HL-60 [3]): 300 nM | IC50 (Jurkat [4]): 300 nM | IC50 (A549 [5]): 300 nM | IC50 (COLO 201): 300 nM | IC50 (HT-29): 300 nM | IC50 (AGS): 300 nM | IC50 (A2780): 300 nM | IC50 (BT-549): 300 nM | IC50 (MCF7): 300 nM

SMILES: O[C@]12C=C(c3nccc4c3[nH]c3ccccc34)[C@@H]3CCN(CCCC/C=C\CC1)C[C@@]31C[C@@]34CC[C@@H](CCCN3[C@H]12)O4
IC50 (A549 [1]): 5800 nM | IC50 (K562): 5200 nM

SMILES: COc1cc(O)c(-c2cc(-c3cc(-c4c(O)cc5c(c4OC)[C@@H](C)N[C@H](C)C5)c4cc(C)cc(OC)c4c3O)c(O)c3c(OC)cc(C)cc23)c2c1[C@H](C)N[C@H](C)C2
IC50 (Plasmodium falciparum [2]): 418 nM | IC50 (Plasmodium falciparum [6]): 452 nM

IC50 (Caco-2): 9240 nM | IC50 (HL-60 [7]): 10200 nM
SMILES: COC(=O)c1ccc(OC)c(OC)c1NC(=O)c1cc(C/C=C(\C)c2c3[n+](cc4c(OC)c(OC)ccc24)CCc2cc4c(cc2-3)OCO4)c2c(c1)OCO2

SMILES: COc1ccc2c(c1OC)CN(C)[C@@H]1c3cc4c(cc3C[C@H](O)[C@H]21)OCO4
IC50 (Jurkat [8]): 4800 nM | IC50 (MOLT-4): 4800 nM | IC50 (HL-60 [9]): 4800 nM

SMILES: [O-][N+]1=C([C@H]2[C@@H]3CCN4CCCC/C=C\CC[C@@]5(O[C@@H]25)[C@@H]2NCCCC/C=C\CC[C@@]23C4)c2[nH]c3ccccc3c2CC1
IC50 (A549 [1]): 5800 nM | IC50 (K562): 5200 nM

SMILES: [O-][n+]1ccc2c([nH]c3ccccc32)c1[C@H]1[C@@H]2CCN3CCCC/C=C\CC[C@@]4(O[C@@H]14)[C@@H]1NCCCC/C=C\CC[C@@]12C3
IC50 (A549 [1]): 5800 nM | IC50 (K562): 5200 nM

SMILES: O[C@H]1[C@@H](c2nccc3c2[nH]c2ccccc23)[C@@H]2CCN3CCCC/C=C\CC[C@@]1(O)[C@@H]1NCCCC/C=C\CC[C@]21C3
IC50 (A549 [1]): 5800 nM | IC50 (K562): 5200 nM

SMILES: COc1cc(O)c(-c2cc(-c3cc(-c4c(O)cc5c(c4OC)[C@H](C)N[C@H](C)C5)c4cc(C)cc(OC)c4c3O)c(O)c3c(OC)cc(C)cc23)c2c1[C@@H](C)N[C@H](C)C2
IC50 (Plasmodium falciparum [2]): 210 nM | IC50 (Plasmodium falciparum [6]): 138 nM

SMILES: O[C@@H]1CCCN2[C@@H](CC1)C[C@]13CN4CCCC/C=C\CC[C@](O)(C=C(c5nccc6c5[nH]c5ccccc56)[C@@H]1CC4)[C@H]23 [32,33-DIHYDRO-31-HYDROXYMANZAMINE A]
IC50 (A549 [1]): 5800 nM | IC50 (K562): 5200 nM

SMILES: CO[C@@H]1C=C[C@@]23c4cc5c(cc4CN(C[C@@H]2O)[C@H]3C1)OCO5 [(+)-HAEMANTHAMINE]
IC50 (HL-60 [3]): 300 nM | IC50 (Jurkat [4]): 300 nM | IC50 (A549 [5]): 300 nM | IC50 (COLO 201): 300 nM | IC50 (HT-29): 300 nM | IC50 (AGS): 300 nM | IC50 (A2780): 300 nM | IC50 (BT-549): 300 nM | IC50 (MCF7): 300 nM

bioavailability [10]: 0.36%
SMILES: COc1ccc2cc3[n+](cc2c1OC)CCc1cc2c(cc1-3)OCO2 [BERBERINE]
Activity (HaCaT [11]): 80% | fold change (FC) (HaCaT [12]): 3 | NOAEL at 480 h [13]: 420 mg/kg | LOAEL [14]: 1313 mg/kg

SMILES: CN1Cc2c(ccc3c2OCO3)[C@@H]2[C@H]1c1cc3c(cc1C[C@@H]2O)OCO3 [CHELIDONINE]
IC50 (Jurkat [8]): 2200 nM | IC50 (MOLT-4): 2200 nM | IC50 (HL-60 [9]): 2200 nM

SMILES: O[C@H]1[C@H]2c3cc4c(cc3CN3CCC(=C[C@@H]1O)[C@H]23)OCO4 [LYCORINE]
IC50 (HL-60 [3]): 300 nM | IC50 (Jurkat [4]): 300 nM | IC50 (A549 [5]): 300 nM | IC50 (COLO 201): 300 nM | IC50 (HT-29): 300 nM | IC50 (AGS): 300 nM | IC50 (A2780): 300 nM | IC50 (BT-549): 300 nM | IC50 (MCF7): 300 nM

SMILES: O[C@]12C=C(c3nccc4c3[nH]c3ccccc34)[C@@H]3CCN(CCCC/C=C\CC1)C[C@@]31C[C@@H]3/C=C\CCCCN3[C@H]12 [MANZAMINE A]
IC50 (A549 [1]): 5800 nM | IC50 (K562): 5200 nM

SMILES: C1=C\CC[C@]23CN4CCCC/C=C\CC[C@@]5(O[C@H]5[C@@H](c5nccc6c5[nH]c5ccccc56)[C@@H]2CC4)[C@@H]3NCCCC/1 [MANZAMINE B]
IC50 (A549 [1]): 5800 nM | IC50 (K562): 5200 nM

Reference: ChEMBL document CHEMBL5241101, “Plant isoquinoline alkaloids: Advances in the chemistry and biology of berberine” (Eur J Med Chem, 2021)
